As usually defined, the Ki is a dissociation constant, usually derived from enzyme kinetics or from competition with a known ligand.

For assay [1], the target named is T1, human A3AR (Homo sapiens, UniProt P0DMS8).
T1 construct: expressed in transfected cells
T1 sequence (P0DMS8 1-318): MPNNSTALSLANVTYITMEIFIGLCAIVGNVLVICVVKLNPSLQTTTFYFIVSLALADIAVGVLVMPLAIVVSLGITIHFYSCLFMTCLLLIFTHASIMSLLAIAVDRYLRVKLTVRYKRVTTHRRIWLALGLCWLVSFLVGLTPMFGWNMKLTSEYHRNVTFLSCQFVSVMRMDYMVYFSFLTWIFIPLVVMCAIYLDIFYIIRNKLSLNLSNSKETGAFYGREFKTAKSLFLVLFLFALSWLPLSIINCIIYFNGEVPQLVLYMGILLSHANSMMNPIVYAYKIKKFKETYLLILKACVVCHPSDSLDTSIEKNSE
Description: Radioligand binding at human A3 AR ([125I]I-AB-MECA, membranes of CHO cells). To be noted: for Ki: [125I]38, CHO cells, read-out: Affinity (Ki, nM), A3. The method in brief: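 Membranes came from CHO cells stably expressing hA3R, pretreated with adenosine deaminase (3 units/mL). Competition with agonist radioligand was run in 50 mM Tris-HCl pH 7.5, 10 mM MgCl2 for 60 min at 25 °C, followed by GF/B filtration and γ-counting. Ki values derived.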

Assay [2] addresses T1, human A3AR. The assay is described as follows: Cyclic AMP accumulation assay: inhibition of forskolin-stimulated cyclic AMP production in AR-transfected CHO cells. Type of assay: cell-based. To be noted: for % Inhibition of cAMP formation at hA3 AR: at 10 μM, in comparison to the maximal effect of full agonist NECA at 10 μM. The procedure:
Intracellular cyclic AMP levels were measured with a competitive protein binding method. […] CHO cells that expressed the recombinant human A3AR were harvested by trypsinization. After centrifugation and resuspended in medium, cells were planted in 24-well plates in 1.0 mL medium. After 24 h, the medium was removed and cells were washed three times with 1 mL DMEM, containing 50 mM HEPES, pH 7.4. […] After 45 min forskolin (10 μM) was added to the medium, and incubation was continued for an additional 15 min. […] The cell lysate was resuspended and stored at −20° C. For determination of cyclic AMP production, protein kinase A (PKA) was incubated with [^3H]cyclic AMP (2 nM) in K2HPO4/EDTA buffer (K2HPO4, 150 mM; EDTA, 10 mM), 20 μL of the cell lysate, and 30 μL 0.1 M HCl or 50 μL of cyclic AMP solution (0-16 pmol/200 μL for standard curve). Bound radioactivity was separated by rapid filtration through Whatman GF/C filters and washed once with cold buffer. Bound radioactivity was measured by liquid scintillation spectrometry.
Bound radioactivity was separated by rapid filtration through Whatman GF/C filters and washed the filters once with cold buffer. Bound radioactivity was measured with liquid scintillation spectrometry.
Background: Changes in cAMP serve as a functional read-out for many G protein-coupled receptors.

With `CNC(=O)[C@@]12C[C@@H]1[C@@H](n1cnc3c(NCc4cccc(Cl)c4)nc(C#CCCCCc4cn(C56CC7CC(CC(C7)C5)C6)nn4)nc31)[C@H](O)[C@@H]2O` [Compound 18, (1S,2R,3S,4R,5S)-6-(3-Chlorobenzylamino)-(2-(6-(1-(adamantyl)-1H-1,2,3-triazol-4-yl)hex-1-ynyl)-9H-purin-9-yl)-2′,3′-dihydroxybicyclo[3.1.0]hexane-1′-carboxylic acid N-methylamide], in assay [1], the inhibitory constant (Ki) is 6.5 ± 0.5 nM. In addition, the “selectivity for the hA3AR in comparison to the hA1 and hA2A ARs” value in assay [1] (radioligand binding inhibition curves, figure legends) was “highly selective”. In addition, in assay [2], the “% Inhibition of cAMP formation at hA3 AR” value was 27.8 ± 17.4%.

For `CNC(=O)[C@@]12C[C@@H]1[C@@H](n1cnc3c(NCc4cccc(Cl)c4)nc(C#CCCCCc4cn(CCCCN)nn4)nc31)[C@H](O)[C@@H]2O` [Compound 16, (1S,2R,3S,4R,5S)-6-(3-Chlorobenzylamino)-(2-(6-(1-(4-aminobutyl)-1H-1,2,3-triazol-4-yl)hex-1-ynyl)-9H-purin-9-yl)-2′,3′-dihydroxybicyclo[3.1.0]hexane-1′-carboxylic acid N-methylamide], the Ki in assay [1] was determined as 47 ± 1.8 nM. In assay [2], the “% Inhibition of cAMP formation at hA3 AR” value is 64.4 ± 12.4%.

Turning to `CNC(=O)[C@@]12C[C@@H]1[C@@H](n1cnc3c(NCc4cccc(Cl)c4)nc(C#CCCCCc4cn(CCCCCCNC(=O)c5ccc(-c6c7ccc(=N)c(S(=O)(=O)O)c-7oc7c(S(=O)(=O)O)c(N)ccc67)c(C(=O)O)c5)nn4)nc31)[C@H](O)[C@@H]2O` [Compound 23], the inhibitory constant (Ki) in assay [1] is 416 ± 45 nM. For the same molecule, the “% Inhibition of cAMP formation at hA3 AR” value in assay [2] is 37.8 ± 14.6%.

With `CNC(=O)[C@@]12C[C@@H]1[C@@H](n1cnc3c(NCc4cccc(Cl)c4)nc(C#CCCCCc4cn(CCNC(C)=O)nn4)nc31)[C@H](O)[C@@H]2O` [Compound 15, (1S,2R,3S,4R,5S)-6-(3-Chlorobenzylamino)-(2-(6-(1-(4-acetamidoethyl)-1H-1,2,3-triazol-4-yl)hex-1-ynyl)-9H-purin-9-yl)-2′,3′-dihydroxybicyclo[3.1.0]hexane-1′-carboxylic acid N-methylamide], in assay [1], the Ki turned out to be 22.3 ± 1.6 nM. In assay [2], the “% Inhibition of cAMP formation at hA3 AR” value came to 93.6 ± 17.7%.

With `CNC(=O)[C@@]12C[C@@H]1[C@@H](n1cnc3c(NCc4cccc(Cl)c4)nc(-c4nnn(-c5ccc(N=C=S)cc5)c4CCCCc4cn(-c5ccc(N=C=S)cc5)nn4)nc31)[C@H](O)[C@@H]2O` [Compound 25, (1S,2R,3S,4R,5S)-6-(3-Chlorobenzylamino)-(2-(1,6-bis(4-isothiocyante-phenyl)-1H-bis(1,2,3-triazol-4-yl)hex-1-ynyl)-9H-purin-9-yl)-2′,3′-dihydroxybicyclo[3.1.0]hexane-1′-carboxylic acid N-methylamide], the Ki in assay [1] came out at 8.8 ± 1.3 nM. The “% Inhibition of cAMP formation at hA3 AR” value in assay [2] was 83.6 ± 7.2%.

For the molecule `C#CCCCCC#Cc1nc(NCc2cccc(Cl)c2)c2ncn(C3C(O)C(O)C4(C(=O)NC)CC34)c2n1` (stereo not drawn) [Compound 9, (1′S, 2′R, 3′S, 4′S, 5′S)-4′-[6-(3-Chlorobenzylamino)-2-(1,7-octadiynyl)-9H-purin-9-yl]-2′,3′-dihydroxybicyclo[3.1.0]hexane-1′-carboxylic acid N-methylamide], the Ki in assay [1] amounted to 29.4 ± 9.8 nM. Besides, the “% Inhibition of cAMP formation at hA3 AR” value in assay [2] amounted to 60.2 ± 17.0%. In addition, the “% Inhibition of cAMP accumulation at the hA3AR” value in assay [2] (concentration 10 μM, in comparison to full agonist NECA at 1 μM) is recorded as 60.2 ± 17.0%.

On to `CNC(=O)[C@@]12C[C@@H]1[C@@H](n1cnc3c(NCc4cccc(Cl)c4)nc(C#CCCCCc4cn(CCCCCCC(=O)NCCCCCCNC(=O)CCCC[C@@H]5SC[C@@H]6NC(=O)N[C@@H]65)nn4)nc31)[C@H](O)[C@@H]2O` [Compound 21], for which, in assay [1], the inhibition constant (Ki) worked out at 235 ± 43 nM. In assay [2], the “% Inhibition of cAMP formation at hA3 AR” value amounted to 41.8 ± 11.3%.

In the case of `CNC(=O)[C@@]12C[C@@H]1[C@@H](n1cnc3c(NCc4cccc(Cl)c4)nc(C#CCCCCc4cn(Cc5ccc(-n6sccc6=O)cc5)nn4)nc31)[C@H](O)[C@@H]2O` [Compound 19, (1S,2R,3S,4R,5S)-6-(3-Chlorobenzylamino)-(2-(1-(4-3-oxoisothiazol-2(3H)-yl)benzyl-1H-1,2,3-triazol-4-yphex-1-ynyl)-9H-purin-9-yl)-2′,3′-dihydroxybicyclo[3.1.0]hexane-β-carboxylic acid N-methylamide], the Ki in assay [1] amounted to 102 ± 25 nM. For the same molecule, the “% Inhibition of cAMP formation at hA3 AR” value in assay [2] was found to be 75.9 ± 16.5%.

`CNC(=O)[C@@]12C[C@@H]1[C@@H](n1cnc3c(NCc4cccc(Cl)c4)nc(C#CCCCCc4cn(-c5ccc(F)c([N+](=O)[O-])c5)nn4)nc31)[C@H](O)[C@@H]2O` [Compound 11]: in assay [1], the inhibitory constant (Ki) turned out to be 10.6 ± 3.8 nM. The “% Inhibition of cAMP formation at hA3 AR” value in assay [2] stood at 116 ± 22%.

Take `CNC(=O)[C@@]12C[C@@H]1[C@@H](n1cnc3c(NCc4cccc(Cl)c4)nc(C#CCCCCc4cn(-c5ccc(N)cc5)nn4)nc31)[C@H](O)[C@@H]2O` [Compound 12, (1S,2R,3S,4R,5S)-4′-(6-(3-Chlorobenzylamino)-2-(6-(1-(4-amino-phenyl)-1H-1,2,3-triazol-4-yl)hex-1-ynyl)-9H-purin-9-yl)-2′,3′-dihydroxybicyclo[3.1.0]hexane-1′-carboxylic acid N-methylamide]: the Ki in assay [1] stood at 87.1 ± 13.1 nM. In addition, the “% Inhibition of cAMP formation at hA3 AR” value in assay [2] turned out to be 44.3 ± 2.4%.

Consider `CNC(=O)[C@@]12C[C@@H]1[C@@H](n1cnc3c(NCc4cccc(Cl)c4)nc(C#CCCCCc4cn(CCCCNC(C)=O)nn4)nc31)[C@H](O)[C@@H]2O` [Compound 17, (1S,2R,3S,4R,5S)-6-(3-Chlorobenzylamino)-(2-(6-(1-(4-acetamidobutyl)-1H-1,2,3-triazol-4-yl)hex-1-ynyl)-9H-purin-9-yl)-2′,3′-dihydroxybicyclo[3.1.0]hexane-1′-carboxylic acid N-methylamide], for which the Ki in assay [1] was 89.5 ± 12.6 nM. The “% Inhibition of cAMP formation at hA3 AR” value in assay [2] is recorded as 59.7 ± 19.2%.

Take `CNC(=O)[C@@]12C[C@@H]1[C@@H](n1cnc3c(NCc4cccc(Cl)c4)nc(C#CCCCCc4cn(CCCCCCNC(=O)CCCC[C@@H]5SC[C@@H]6NC(=O)N[C@@H]65)nn4)nc31)[C@H](O)[C@@H]2O` [Compound 20, (1S,2R,3S,4R,5S)-6-(3-Chlorobenzylamino)-(2-(6-(1-(6-(5-(3aS,4S,6aR)-oxohexahydro-1H-thieno[3,4-d]imidazol-4-yl)pentanamido)hexyl-1H-1,2,3-triazol-4-yl)hex-1-ynyl)-9H-purin-9-yl)-2′,3′-dihydroxybicyclo[3.1.0]hexane-1′-carboxylic acid N-methylamide]: the Ki in assay [1] is 285 ± 54 nM. For the same molecule, in assay [2], the “% Inhibition of cAMP formation at hA3 AR” value is 55.6 ± 12.5%.

For `CNC(=O)[C@@]12C[C@@H]1[C@@H](n1cnc3c(NCc4cccc(Cl)c4)nc(C#CCCCCc4cn(-c5ccc(C(=O)CBr)cc5)nn4)nc31)[C@H](O)[C@@H]2O` [Compound 14, (1S,2R,3S,4R,5S)-6-(3-Chlorobenzylamino)-4-(2-(6-(4-(2-bromoacetyl)phenyl)-1H-1,2,3-triazol-4-yphex-1-ynyl)-9H-purin-9-yl)-2′,3′-dihydroxybicyclo[3.1.0]hexane-1′-carboxylic acid N-methylamide], the Ki in assay [1] was found to be 9.6 ± 1.3 nM. Moreover, the “% Inhibition of cAMP formation at hA3 AR” value in assay [2] is given as 109 ± 12%.

Turning to `CNC(=O)[C@@]12C[C@@H]1[C@@H](n1cnc3c(NCc4cccc(Cl)c4)nc(C#CCCCCc4cn(-c5ccc(C(=O)O)cc5)nn4)nc31)[C@H](O)[C@@H]2O` [Compound 13, (1S,2R,3S,4R,5S)-4′-(6-(3-Chlorobenzylamino)-2-(6-(1-(4-carboxyl-phenyl)-1H-1,2,3-triazol-4-yl)hex-1-ynyl)-9H-purin-9-yl)-2′,3′-dihydroxybicyclo[3.1.0]hexane-1′-carboxylic acid N-methylamide], the Ki in assay [1] amounted to 180 ± 23 nM. The “% Inhibition of cAMP formation at hA3 AR” value in assay [2] stood at 83.4 ± 13.1%.

For the molecule `CNC(=O)[C@@]12C[C@@H]1[C@@H](n1cnc3c(NCc4cccc(Cl)c4)nc(C#CCCCCc4cn(-c5ccc(N=C=S)cc5)nn4)nc31)[C@H](O)[C@@H]2O` [Compound 26, (1S,2R,3S,4R,5S)-6-(3-Chlorobenzylamino)-(2-(6-(1-(4-isothiocyante-phenyl)-1H-1,2,3-triazol-4-yl)hex-1-ynyl)-9H-purin-9-yl)-2′,3′-dihydroxybicyclo[3.1.0]hexane-1′-carboxylic acid N-methylamide], the Ki in assay [1] is 37.5 ± 16 nM. Further, the “% Inhibition of cAMP formation at hA3 AR” value in assay [2] came to 19.5 ± 14.5%.

The values above are taken from US8518957B2, “Methanocarba adenosine derivatives, pharmaceutical compositions, and method of reducing intraocular pressure” (The United States of America, as represented by the …, priority 2009, dated 2013).
